Results: ChEMBL document CHEMBL1150645, “A new secosterol from the Indonesian octocoral Pachyclavularia violacea” (J Nat Prod, 2002)

What was measured:
Type in all cases: functional, cell-based
P388 = experiment: Cytotoxicity against mouse P388 cells
A549 = experiment: Cytotoxicity against human A549 cells
SK-MEL-28 = experiment: Cytotoxicity against human SK-MEL-28 cells
HT-29 = experiment: Cytotoxicity against human HT-29 cells

Measured: IC50

CC(=O)O[C@@H]1C/C=C(/C)C[C@H]2O[C@H]3[C@@H]4[C@H]2C(C)=CC(=O)[C@@H]4[C@@H](C)CO[C@@]13C [PACHYCLAVULARIAENONE B]
> 1 µg/mL: P388 | A549 | SK-MEL-28 | HT-29

CC(C)[C@@H](C)CC[C@@H](C)[C@H]1CC[C@@H]([C@@H]2C[C@H]3O[C@]34C[C@@H](O)CC[C@]4(C)C2=O)[C@]1(C)CCO [SECOSTEROL]
> 1 µg/mL: P388 | A549 | SK-MEL-28 | HT-29
